Assay results from US20230373989A1, “N-PHENYLAMINOCARBONYL PYRIDINO-, PYRIMIDINO AND BENZO-TROPANES AS MODULATORS OF GPR65” (PATHIOS THERAPEUTICS LIMITED, priority 2020, published 2023).

Molecular target: T1, human recombinant GPR65 (Homo sapiens, UniProt Q8IYL9)
T1 construct: host or cells: 1321N1 human astrocytoma cells (1321N1-hrGPR65)
Assay: Human GPR65 cAMP HTRF antagonist assay
Format: cell-based
Details: not given
Method in brief: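 1321N1 astrocytoma cells stably expressing GPR65 were preincubated with compound for 30 min at room temperature in KRH pH 7.6 with 1 mM IBMX and 200 μM EDTA. They were then stimulated at assay pH 7.2 for 30 min, with controls at pH 7.9. cAMP was read by HTRF (665/620 nm), normalised to controls and fitted by 4-parameter logistic to give IC50.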

T1 sequence (Q8IYL9 whole entry): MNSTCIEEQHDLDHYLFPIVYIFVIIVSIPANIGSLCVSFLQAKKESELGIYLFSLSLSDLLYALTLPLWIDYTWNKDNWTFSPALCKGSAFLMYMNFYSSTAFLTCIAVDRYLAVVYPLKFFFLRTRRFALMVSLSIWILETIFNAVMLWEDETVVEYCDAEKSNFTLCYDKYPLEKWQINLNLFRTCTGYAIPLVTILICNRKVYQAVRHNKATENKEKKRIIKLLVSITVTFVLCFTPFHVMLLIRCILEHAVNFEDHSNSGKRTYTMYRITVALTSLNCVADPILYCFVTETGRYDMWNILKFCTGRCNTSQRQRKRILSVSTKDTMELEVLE

Structure (SMILES)	IC50 [µM]
N#Cc1cc(NC(=O)N2[C@H]3CC[C@@H]2c2ccnc(F)c2C3)ccc1C(F)(F)F [Compound 151, (5R,8S)-N-(3-cyano-4-(trifluoromethyl)phenyl)-1-fluoro-6,7,8,9-tetrahydro-5H-5,8-epiminocyclohepta[c]pyridine-10-carboxamide]	< 0.5
O=C(Nc1ccc(-c2ccccc2)cc1)N1[C@H]2CC[C@@H]1c1c[nH]c(=O)cc1C2 [Compound 191, (6S,9R)-N-([1,1′-Biphenyl]-4-yl)-3-oxo-3,5,6,7,8,9-hexahydro-2H-6,9-epiminocyclohepta[c]pyridine-10-carboxamide]	< 0.5
O=C(Nc1ccc(Cl)c(Cl)c1)N1[C@@H]2CC[C@H]1[C@@H](F)c1cc(F)ncc12 [Compound 140, (5S,6S,9R)-N-(3,4-Dichlorophenyl)-3,5-difluoro-6,7,8,9-tetrahydro-5H-6,9-epiminocyclohepta[c]pyridine-10-carboxamide]	< 0.5
O=C(Nc1ccc(Cl)c(Cl)c1)N1[C@H]2CC[C@@H]1c1c[nH]c(=O)cc1C2 [Compound 103, (6S,9R)-N-(3,4-Dichlorophenyl)-3-oxo-3,5,6,7,8,9-hexahydro-2H-6,9-epiminocyclohepta[c]pyridine-10-carboxamide]	< 0.5
O=C(Nc1cc(C(F)(F)F)ccc1F)N1[C@H]2CC[C@@H]1c1ccnc(F)c1C2 [Compound 119, (5R,8S)-1-Fluoro-N-(2-fluoro-5-(trifluoromethyl)phenyl)-6,7,8,9-tetrahydro-5H-5,8-epiminocyclohepta[c]pyridine-10-carboxamide]	< 0.5
O=C(Nc1ccc(Cl)c(Cl)c1)N1[C@@H]2CC[C@H]1c1cnc(F)cc1C2 [Compound 198, (6R,9S)-N-(3,4-dichlorophenyl)-3-fluoro-6,7,8,9-tetrahydro-5H-6,9-epiminocyclohepta[c]pyridine-10-carboxamide]	0.5 to 5
O=C(Nc1cccc(-c2ccccc2)c1)N1[C@H]2CC[C@@H]1c1ccnc(F)c1C2 [Compound 184, (5R,8S)-N-([1,1′-Biphenyl]-3-yl)-1-fluoro-6,7,8,9-tetrahydro-5H-5,8-epiminocyclohepta[c]pyridine-10-carboxamide]	< 0.5

Same assay, conditions: 1321N1-hrGPR65 cells, assay pH 7.2, cAMP HTRF; read-out: hGPR65 IC50 (activity class)

Structure (SMILES)	IC50 [µM]
COc1ccc2c(c1)CC1CCC2N1C(=O)Nc1ccc(Cl)c(Cl)c1 (racemic) [Compound 56, (±)-N-(3,4-Dichlorophenyl)-2-methoxy-6,7,8,9-tetrahydro-5H-5,8-epiminobenzo[7]annulene-10-carboxamide]	0.5 to 5
O=C(Nc1ccc(Cl)c(Cl)c1)N1C2CCC1c1c(ccnc1F)C2 (racemic) [Compound 68, (±)-N-(3,4-Dichlorophenyl)-1-fluoro-6,7,8,9-tetrahydro-5H-6,9-epiminocyclohepta[c]pyridine-10-carboxamide]	0.5 to 5
O=C(Nc1ccc(Cl)c(Cl)c1)N1C2CCC1c1cncc(F)c1C2 (racemic) [Compound 95, (±)-N-(3,4-Dichlorophenyl)-4-fluoro-6,7,8,9-tetrahydro-5H-6.9-epiminocyclohepta[c]pyridine-10-carboxamide]	0.5 to 5
Cc1ncc2c(n1)CC1CCC2N1C(=O)Nc1ccc(Cl)c(Cl)c1 (racemic) [Compound 25, (±)-N-(3,4-Dichlorophenyl)-2-methyl-6,7,8,9-tetrahydro-5H-5,8-epiminocyclohepta[d]pyrimidine-10-carboxamide]	> 5
O=C(Nc1ccc(OC(F)F)cc1)N1C2CCC1c1ccnc(F)c1C2 (racemic) [Compound 169, (±)-N-(4-(Difluoromethoxy)phenyl)-1-fluoro-6,7,8,9-tetrahydro-5H-5,8-epiminocyclohepta[c]pyridine-10-carboxamide]	0.5 to 5
O=C(Nc1ccc(Cl)c(Cl)c1)N1C2CCC1c1cnc(F)c(F)c1C2 (racemic) [Compound 135, (±)-N-(3,4-Dichlorophenyl)-3,4-difluoro-6,7,8,9-tetrahydro-5H-6,9-epiminocyclohepta[c]pyridine-10-carboxamide]	0.5 to 5
